These results are taken from patent publication US20160272617A1, “SUBSTITUTED PHENYLALANINE DERIVATIVES” (BAYER PHARMA AKTIENGESELLSCHAFT, priority 2013, published 2016).

Experiment [1] deals with T1, human plasmin (Homo sapiens, UniProt P00747).
T1 construct: purchased Kordia
As to the kind of experiment: Measurement of plasmin inhibition (fluorogenic peptide substrate MeOSuc-Ala-Phe-Lys-AMC). To be noted: plasmin from Kordia, 15 min preincubation, 30 min at 22° C., fluorescence. The experiment is classed as biochemical. As for the experimental part: The plasmin inhibition of the inventive substances is determined using a biochemical test system which utilizes the reaction of a peptidic plasmin substrate to determine the enzymatic activity of human plasmin. Here, plasmin cleaves from the peptic plasmin substrate the C-terminal aminomethylcoumarin (AMC), the fluorescence of which is measured. The determinations are carried out in microtitre plates.
Test substances are dissolved in dimethyl sulphoxide and serially diluted in dimethyl sulphoxide (3000 μM to 0.0078 μM; resulting final concentrations in the test: 50 μM to 0.00013 μM). In each case 1 μl of the diluted substance solutions are placed into the wells of white microtitre plates from Greiner (384 wells). Subsequently, the following are added successively: 20 μl of assay buffer (50 mmol/Tris buffer pH 7.4; 100 mmol/l sodium chloride; 5 mmol/calcium chloride; 0.1% bovine serum albumin) and 20 μl of plasmin from Kordia (0.3 μg/ml in assay buffer) are then added successively. After 15 min of incubation, the enzyme reaction is started by addition of 20 μl of the plasmin substrate MeOSuc-Ala-Phe-Lys-AMC dissolved in assay buffer (150 μM in assay buffer) from Bachem, the mixture is incubated at room temperature (22° C.) for 30 min and fluorescence is then measured (excitation: 360 nm, emission: 460 nm). The measured emissions of the test batches with test substance are compared to those of control batches without test substance (only dimethyl sulphoxide instead of test substance in dimethyl sulphoxide), and the IC50 values are calculated from the concentration/activity relationships.

For experiment [2], the target named is T2, human factor XIa (Homo sapiens, UniProt P03951).
T2 construct: purchased Kordia
As to the kind of experiment: Measurement of FXIa inhibition (fluorogenic peptide substrate Boc-Glu(OBzl)-Ala-Arg-AMC). The experiment is classed as biochemical. The conditions noted are these: factor XIa from Kordia, 15 min preincubation, 30 min at 22° C., fluorescence. Summed up:
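Released AMC fluorescence (360/460 nm) read after 30 min at 22 °C. The reaction was started with Boc-Glu(OBzl)-Ala-Arg-AMC (10 μM stock) after a 15 min preincubation of the enzyme (0.45 nM stock) with compound (final 50 μM to 0.00013 μM).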

Experiment [3] concerns human and animal plasma. As to the kind of experiment: Determination of anticoagulatory activity: activated partial thromboplastin time (aPTT) in plasma. To be noted: concentration of test substance which brings about a 1.5-fold extension of the aPTT; plasma species not given. An outline of the steps:
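Citrated plasma (1:9, 0.11 M citrate; 4000 g, 15 min) from human or animal blood incubated with test compound and cephalin/kaolin PTT reagent for 3 min at 37° C.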

Where a name gives a salt, the structure may show the parent alone.

T1 sequence (P00747 581-810 limits assumed): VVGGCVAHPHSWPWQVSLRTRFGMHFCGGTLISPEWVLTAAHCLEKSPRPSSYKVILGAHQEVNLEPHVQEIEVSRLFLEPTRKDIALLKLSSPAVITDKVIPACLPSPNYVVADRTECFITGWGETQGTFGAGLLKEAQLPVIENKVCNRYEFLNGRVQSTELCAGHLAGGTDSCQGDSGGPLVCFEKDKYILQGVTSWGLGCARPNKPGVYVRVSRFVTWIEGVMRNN
T1 sequence (P00747 97-580 partner limits assumed): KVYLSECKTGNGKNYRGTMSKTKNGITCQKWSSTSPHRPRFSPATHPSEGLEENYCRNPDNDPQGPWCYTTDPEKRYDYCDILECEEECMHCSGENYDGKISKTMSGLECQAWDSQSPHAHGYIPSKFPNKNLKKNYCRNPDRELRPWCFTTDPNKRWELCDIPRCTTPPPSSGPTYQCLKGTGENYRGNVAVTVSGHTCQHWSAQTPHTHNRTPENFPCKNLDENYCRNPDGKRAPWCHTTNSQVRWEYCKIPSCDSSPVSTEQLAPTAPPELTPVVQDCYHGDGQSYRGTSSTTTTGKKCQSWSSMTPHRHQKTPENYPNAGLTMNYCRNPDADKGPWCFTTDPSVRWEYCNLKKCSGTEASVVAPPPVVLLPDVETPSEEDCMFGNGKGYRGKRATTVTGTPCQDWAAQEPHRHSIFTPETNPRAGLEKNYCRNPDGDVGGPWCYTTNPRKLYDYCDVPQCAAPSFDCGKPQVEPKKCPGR
T2 sequence (P03951 388-625 limits assumed): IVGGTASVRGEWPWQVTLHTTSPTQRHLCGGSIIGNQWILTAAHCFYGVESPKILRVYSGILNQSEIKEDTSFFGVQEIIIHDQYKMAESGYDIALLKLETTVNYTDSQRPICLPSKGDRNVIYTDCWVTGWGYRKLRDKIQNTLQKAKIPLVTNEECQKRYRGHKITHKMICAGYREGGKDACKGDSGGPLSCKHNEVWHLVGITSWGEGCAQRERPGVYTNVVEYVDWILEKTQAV
T2 sequence (P03951 19-387 partner limits assumed): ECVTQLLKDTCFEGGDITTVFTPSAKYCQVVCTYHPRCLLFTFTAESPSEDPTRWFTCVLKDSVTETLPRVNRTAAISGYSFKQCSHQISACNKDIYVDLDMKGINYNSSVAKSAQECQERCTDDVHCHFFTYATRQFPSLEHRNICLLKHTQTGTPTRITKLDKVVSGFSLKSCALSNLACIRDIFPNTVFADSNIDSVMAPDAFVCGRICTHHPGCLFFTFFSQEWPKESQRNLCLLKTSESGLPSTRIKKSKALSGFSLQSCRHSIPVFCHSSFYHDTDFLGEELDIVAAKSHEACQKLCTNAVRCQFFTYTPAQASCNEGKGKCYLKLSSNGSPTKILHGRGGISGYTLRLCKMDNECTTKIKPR

Take `Cc1cc(C(=O)NC(C)C)ccc1-c1ccc(C[C@H](NC(=O)[C@H]2CC[C@H](CN)CC2)C(=O)Nc2ccc(-c3nn[nH]n3)cc2)cc1` [Example 7, 4′-[(2S)-2-({[trans-4-(Aminomethyl)cyclohexyl]carbonyl}amino)-3-oxo-3-{[4-(2H-tetrazol-5-yl)phenyl]amino}propyl]-N-isopropyl-2-methylbiphenyl-4-carboxamide hydrochloride]: the IC50 came out at 1.9 nM in experiment [1] and 1.7 nM in experiment [2].
For `Cc1cc(C(=O)NC(C)C)ccc1-c1ccc(C[C@H](NC(=O)[C@H]2CC[C@H](CN)CC2)C(=O)Nc2cc(C(=O)O)c3cn[nH]c3c2)cc1` [Example 161, 6-({(2S)-2-({[trans-4-(Aminomethyl)cyclohexyl]carbonyl}amino)-3-[4′-(isopropylcarbamoyl)-2′-methylbiphenyl-4-yl]propanoyl}amino)-1H-indazole-4-carboxylic acid hydrochloride] the same measures were 6.7 nM and 6.1 nM.
For `Cc1cc(C(=O)NC2CCC2)ccc1-c1ccc(C[C@H](NC(=O)[C@H]2CC[C@H](CN)CC2)C(=O)Nc2ccc3cc(C(=O)O)[nH]c3c2)cc1` [Example 160, 6-({(2S)-2-({[trans-4-(Aminomethyl)cyclohexyl]carbonyl}amino)-3-[4′-(cyclobutylcarbamoyl)-2′-methylbiphenyl-4-yl]propanoyl}amino)-1H-indole-2-carboxylic acid hydrochloride], in that order: 1.3 nM and 5.2 nM.
For `Cc1cc(C(=O)NC(C)C)ccc1-c1ccc(C[C@H](NC(=O)[C@H]2CC[C@H](CN)CC2)C(=O)Nc2cc(Cl)c3oc(=O)[nH]c3c2)cc1` [Example 156, 4′-{(2S)-2-({[trans-4-(Aminomethyl)cyclohexyl]carbonyl}amino)-3-[(7-chloro-2-oxo-2,3-dihydro-1,3-benzoxazol-5-yl)amino]-3-oxopropyl}-N-isopropyl-2-methylbiphenyl-4-carboxamide hydrochloride] the same measures were 0.58 nM and 7.1 nM.
`CNC(=O)C(F)(F)C(F)(F)c1nnc(-c2ccc(NC(=O)[C@H](Cc3ccc(-c4ccc(C(=O)NC(C)C)cc4C)cc3)NC(=O)[C@H]3CC[C@H](CN)CC3)cc2)[nH]1` [Example 165, 4′-({(2S)-2-({[trans-4-(Aminomethyl)cyclohexyl]carbonyl}amino)-3-oxo-3-[(4-{5-[1,1,2,2-tetrafluoro-3-(methylamino)-3-oxopropyl]-4H-1,2,4-triazol-3-yl}phenyl)amino]propyl}-N-isopropyl-2-methylbiphenyl-4-carboxamide hydrochloride]: the results for the IC50 in experiment [1] and in experiment [2] were 1.9 nM and 1.4 nM, respectively.
For the compound `Cc1cc(C(=O)NC(C)C)ccc1-c1ccc(C[C@H](NC(=O)C2CCC(CN)CC2)C(=O)Nc2ccc3cn[nH]c3c2)cc1` (single isomer, unassigned; enantiomer 2) [Example 170], the IC50 in experiment [1] came out at 1.3 nM; in experiment [2] it was 5.6 nM.
For the compound `Cc1cc(C(=O)NC(C)C)ccc1-c1ccc(CC(NC(=O)[C@H]2CC[C@H](CN)CC2)C(=O)Nc2ccc3cn[nH]c3c2)cc1` (mixture of isomers) [Example 21, 4′-[(2R,S)-2-({[trans-4-(Aminomethyl)cyclohexyl]carbonyl}amino)-3-(1H-indazol-6-ylamino)-3-oxopropyl]-N-isopropyl-2-methylbiphenyl-4-carboxamide hydrochloride (enantiomer mixture)], the IC50 was 1.1 nM in experiment [1] and 1.8 nM in experiment [2].
In the case of `Cc1cc(C(=O)N[C@H]2CC[C@H](O)CC2)ccc1-c1ccc(C[C@H](NC(=O)[C@H]2CC[C@H](CN)CC2)C(=O)Nc2ccc(-c3nn[nH]n3)cc2)cc1` [Example 33, 4′-[(2S)-2-({[trans-4-(Aminomethyl)cyclohexyl]carbonyl}amino)-3-oxo-3-{[4-(2H-tetrazol-5-yl)phenyl]amino}propyl]-N-(trans-4-hydroxycyclohexyl)-2-methylbiphenyl-4-carboxamide hydrochloride], in experiment [3], the “aPTT” value stood at 0.11 µmol/L. Besides, in experiment [2], it took 0.78 nM to reach half-maximal inhibition (IC50).
For `Cc1cc(C(=O)NC2CCC(N(C)C)CC2)ccc1-c1ccc(C[C@H](NC(=O)[C@H]2CC[C@H](CN)CC2)C(=O)Nc2ccc3[nH]c(C(F)(F)F)nc3c2)cc1` (stereo partly drawn) [Example 77, 4′-[(2S)-2-({[trans-4-(Aminomethyl)cyclohexyl]carbonyl}amino)-3-oxo-3-{[2-(trifluoromethyl)-1H-benzimidazol-5-yl]amino}propyl]-N-[4-(dimethylamino)cyclohexyl]-2-methylbiphenyl-4-carboxamide hydrochloride], in experiment [3], the “aPTT” value was determined as 0.22 µmol/L. Besides, in experiment [2], inhibition was half-maximal at 8.4 nM (IC50).
For `NC[C@H]1CC[C@H](C(=O)N[C@@H](Cc2ccc(-c3ccc(C(=O)N[C@@H]4CCNC4)cc3)cc2)C(=O)Nc2ccc(-c3nn[nH]n3)cc2)CC1` [Example 39, 4′-[(2S)-2-({[trans-4-(Aminomethyl)cyclohexyl]carbonyl}amino)-3-oxo-3-{[4-(2H-tetrazol-5-yl)phenyl]amino}propyl]-N-[(3R)-pyrrolidin-3-yl]biphenyl-4-carboxamide hydrochloride] the same measures were 0.1 µmol/L and 9.8 nM.
`Cc1nc2ccc(NC(=O)[C@H](Cc3ccc(-c4ccc(C(=O)NC5CCNCC5)cc4C)cc3)NC(=O)[C@H]3CC[C@H](CN)CC3)cc2[nH]1` [Example 50, 4′-{(2S)-2-({[trans-4-(Aminomethyl)cyclohexyl]carbonyl}amino)-3-[(2-methyl-1H-benzimidazol-6-yl)amino]-3-oxopropyl}-2-methyl-N-(piperidin-4-yl)biphenyl-4-carboxamide hydrochloride]: the “aPTT” value in experiment [3] turned out to be 0.16 µmol/L. The compound also showed an IC50 in experiment [2] of 8.3 nM.
For `Cc1cc(C(=O)N[C@H]2CCNC2)ccc1-c1ccc(C[C@H](NC(=O)[C@H]2CC[C@H](CN)CC2)C(=O)Nc2ccc(-c3nn[nH]n3)cc2)cc1` [Example 9, 4′-[(2S)-2-({[trans-4-(Aminomethyl)cyclohexyl]carbonyl}amino)-3-oxo-3-{[4-(2H-tetrazol-5-yl)phenyl]amino}propyl]-2-methyl-N-[(3S)-pyrrolidin-3-yl]biphenyl-4-carboxamide hydrochloride] the same measures were 0.09 µmol/L and 1.7 nM.
For `NC[C@H]1CC[C@H](C(=O)N[C@@H](Cc2ccc(-c3ccc(C(=O)NC4CCNCC4)cc3Cl)cc2)C(=O)Nc2ccc(-c3nn[nH]n3)cc2)CC1` [Example 11, 4′-[(2S)-2-({[trans-4-(Aminomethyl)cyclohexyl]carbonyl}amino)-3-oxo-3-{[4-(2H-tetrazol-5-yl)phenyl]amino}propyl]-2-chloro-N-(piperidin-4-yl)biphenyl-4-carboxamide hydrochloride] the same measures were 0.08 µmol/L and 2.5 nM.
For `NC[C@H]1CC[C@H](C(=O)N[C@@H](Cc2ccc(-c3ccc(C(=O)N4CCNCC4)cc3)cc2)C(=O)Nc2ccc(-c3nn[nH]n3)cc2)CC1` [Example 47, trans-4-(Aminomethyl)-N-[(2S)-1-oxo-3-[4′-(piperazin-1-ylcarbonyl)biphenyl-4-yl]-1-{[4-(2H-tetrazol-5-yl)phenyl]amino}propan-2-yl]cyclohexanecarboxamide trifluoroacetate], in that order: 0.51 µmol/L and 16 nM.
For `Cc1cc(C(=O)N2CCNCC2)ccc1-c1ccc(C[C@H](NC(=O)[C@H]2CC[C@H](CN)CC2)C(=O)Nc2ccc3cn[nH]c3c2)cc1` [Example 5, trans-4-(Aminomethyl)-N-{(2S)-1-(1H-indazol-6-ylamino)-3-[2′-methyl-4′-(piperazin-1-ylcarbonyl)biphenyl-4-yl]-1-oxopropan-2-yl}cyclohexanecarboxamide hydrochloride], the “aPTT” value in experiment [3] amounted to 0.21 µmol/L. This compound also gave an IC50 in experiment [2] of 16 nM.
For the compound `Cc1c(C(=O)NC2CCNCC2)ccc(-c2ccc(C[C@H](NC(=O)[C@H]3CC[C@H](CN)CC3)C(=O)Nc3ccc(-c4nn[nH]n4)cc3)cc2)c1C` [Example 123, 4′-[(2S)-2-({[trans-4-(Aminomethyl)cyclohexyl]carbonyl}amino)-3-oxo-3-{[4-(2H-tetrazol-5-yl)phenyl]amino}propyl]-2,3-dimethyl-N-(piperidin-4-yl)biphenyl-4-carboxamide hydrochloride], in experiment [3], the “aPTT” value was 0.02 µmol/L. Also, the IC50 in experiment [2] amounted to 2.5 nM.
